The values below are quoted from earlier work in US8747895B2 (priority 2004, dated 2014).

Where two headings read alike, the source gives them in different places.

For this data set the following is noted: for absolute bioavailability: oral administration.

As to “(−)-N-Methyl-3-(o-tolyloxy)-propylamine hydrochloride [Atomoxetine]”, the absolute bioavailability (EMs (extensive metabolizers)) is given as 63%. The absolute bioavailability (PMs (poor metabolizers)) is given as 94%. Besides, under “standard high-fat meal”, the “delay of Tmax with food” value was 3 h and the “lower Cmax with food” value was 10-37%.
